Data from US9334285B2, “Aldosterone synthase inhibitors” (Boehringer Ingelheim International GmbH, priority 2014, dated 2016).
Where two headings read alike, the source gives them in different places.

Experiments:
[1] = molecular target: T1, aldosterone synthase (CYP11B2) (Macaca fascicularis, UniProt A0A2K5UPL9); experiment: Inhibition of aldosterone synthase, cynomolgus adrenal mitochondria, aldosterone quantified by mass spectrometry; assay type: biochemical, cynomolgus monkey; conditions: 2 μM corticosterone, 90 minutes at 37° C.
T1 construct: employ cynomolgus adrenal gland mitochondria as the source of aldosterone synthase (CYP11B2); from tissue; host or cells: cynomolgus monkey adrenal gland mitochondria
T1 sequence (A0A2K5UPL9 1-503): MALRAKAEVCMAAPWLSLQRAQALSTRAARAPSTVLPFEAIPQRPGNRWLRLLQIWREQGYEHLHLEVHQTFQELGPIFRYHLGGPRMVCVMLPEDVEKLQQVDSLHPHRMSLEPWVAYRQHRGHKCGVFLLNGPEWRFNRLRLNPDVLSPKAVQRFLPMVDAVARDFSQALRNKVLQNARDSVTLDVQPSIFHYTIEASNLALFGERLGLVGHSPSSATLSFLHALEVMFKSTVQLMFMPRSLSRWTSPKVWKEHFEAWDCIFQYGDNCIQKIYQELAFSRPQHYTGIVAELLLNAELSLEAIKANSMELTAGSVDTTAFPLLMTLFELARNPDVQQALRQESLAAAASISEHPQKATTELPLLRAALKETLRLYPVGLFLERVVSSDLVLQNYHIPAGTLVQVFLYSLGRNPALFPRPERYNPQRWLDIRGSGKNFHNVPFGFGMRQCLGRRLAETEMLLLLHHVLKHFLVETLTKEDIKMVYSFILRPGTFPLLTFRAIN
Description: The aldosterone synthase and cortisol synthase inhibition assays employ cynomolgus adrenal gland mitochondria as the source of aldosterone synthase (CYP11B2) and cortisol synthase (CYP11B1). […] One unit of CYP11B2 and CYP11B1 activity in these preparations is defined as the amount of enzyme that generates 1 pmol of product in one hour under the conditions described.
The compounds of the invention may be evaluated for aldosterone synthase inhibition by the following assay:
Assays are performed in 96-well format in a final volume of 60 microL/well, containing 100 mM potassium phosphate, pH 7.4, 1% (v/v) DMSO, and additionally, 2 μM of corticosterone and 50 units of CYP11B2 activity. Reactions are started by the addition of NADPH to 1 mM and allowed to proceed for 90 minutes at 37° C. Reactions are terminated by the addition of 60 μL of MeCN containing an internal standard for mass spectrometry. One hundred microliters are then transferred to a glass filter plate and centrifuged at 570×g for 5 minutes and the filtrate is collected. Reaction product aldosterone is quantified by mass spectrometry. To determine the assay blank value (0% activity), NADPH is omitted from some reactions.
Dose dependent inhibition is quantified by the inclusion of compound at various concentrations. Maximum activity (100%) is defined by reactions containing NADPH, but without compound.

[2] = molecular target: cortisol synthase (CYP11B1) (Macaca fascicularis, UniProt A0A2K5ULY1); experiment: Inhibition of cortisol synthesis, cynomolgus adrenal mitochondria, 11-deoxycortisol as substrate; assay type: biochemical, cynomolgus monkey; conditions: 150 units of CYP11B1, 11-deoxycortisol as substrate
Description: The aldosterone synthase and cortisol synthase inhibition assays employ cynomolgus adrenal gland mitochondria as the source of aldosterone synthase (CYP11B2) and cortisol synthase (CYP11B1). Mitochondria are prepared from frozen cynomolgus monkey adrenal glands according to Method A described in by J. D. McGarry et al. (Biochem. J., 1983, 214, 21-28), with a final resuspension in the AT buffer described in R. Yamaguchi et al. (Cell Death and Differentiation, 2007, 14, 616-624), frozen as aliquots in liquid nitrogen and stored at −80° C. until use. One unit of CYP11B2 and CYP11B1 activity in these preparations is defined as the amount of enzyme that generates 1 pmol of product in one hour under the conditions described.
Assays are performed as for aldosterone synthase except for the use of 150 units of CYP11B1, 11-deoxycortisol as substrate and cortisol measured as product.

[3] = cynomolgus adrenal mitochondria, read-out: Cortisol Inhibition IC50
[4] = Cortisol Inhibition IC50, cynomolgus adrenal mitochondria

IC50 [1] [nM]	IC50 [2, 3] [nM]	SMILES	IC50 [2, 4] [nM]
50	6800	CC1(C)Cc2ncn(-c3cccc(F)c3Cl)c2C(=O)O1 [Compound 7, 3-(2-chloro-3-fluorophenyl)-6,6-dimethyl-3H,4H,6H,7H-pyrano[3,4-d]imidazol-4-one]	–
55	2300	CC(C)(C)OC(=O)NCC1(C)Cc2ncn(-c3ccc(F)c(F)c3)c2C(=O)O1 (centres unmarked) [Compound 1, tert-butyl N{[3-(3,4-difluorophenyl)-6-methyl-4-oxo-3H,4H,6H,7H-pyrano[3,4-d]imidazol-6-yl]methyl}carbamate]	–
390	61000	CC1(C)Cc2ncn(-c3ccccc3)c2C(=O)O1 [Compound 17, 6,6-dimethyl-3-phenyl-3H,4H,6H,7H-pyrano[3,4-d]imidazol-4-one]	–
220	> 30000	CC1(CO)Cc2ncn(C3Cc4ccccc4C3)c2C(=O)O1 (centres unmarked) [Compound 27, 3-(2,3-dihydro-1H-inden-2-yl)-6-(hydroxymethyl)-6-methyl-3H,4H,6H,7H-pyrano[3,4-d]imidazol-4-one]	–
210	34000	CC1(CO)Cc2ncn(-c3ccc(C#N)cc3)c2C(=O)O1 (centres unmarked) [Compound 37, 4-[6-(hydroxymethyl)-6-methyl-4-oxo-3H,4H,6H,7H-pyrano[3,4-d]imidazol-3-yl]benzonitrile]	–
870	> 30000	CC1(CO)Cc2ncn(-c3cccc(F)c3Cl)c2C(=O)O1 (single isomer, unassigned) [Compound 34A, 3-(2-chloro-3-fluorophenyl)-6-(hydroxymethyl)-6-methyl-3H,4H,6H,7H-pyrano[3,4-d]imidazol-4-one]	–
64	25000	CC1(C)Cc2ncn(C3Cc4ccccc4C3)c2C(=O)O1 [Compound 26]	–
8.4	1200	CC1(C)Cc2ncn(-c3ccc(Cl)c(Cl)c3)c2C(=O)O1 [Compound 4, 3-(3,4-dichlorophenyl)-6,6-dimethyl-3H,4H,6H,7H-pyrano[3,4-d]imidazol-4-one]	–
8.6	6000	CC1Cc2ncn(-c3ccc(Cl)c(Cl)c3)c2C(=O)O1 (centres unmarked) [Compound 41, 3-(3,4-dichlorophenyl)-6-methyl-3H,4H,6H,7H-pyrano[3,4-d]imidazol-4-one]	–
14	10000	O=C1OCCc2ncn(-c3ccc(Cl)c(Cl)c3)c21 [Compound 23, 3-(3,4-dichlorophenyl)-3H,4H,6H,7H-pyrano[3,4-d]imidazol-4-one]	–
470	65000	O=C1OCCc2ncn(-c3ccc(Cl)cc3)c21 [Compound 20, 3-(4-chlorophenyl)-3H,4H,6H,7H-pyrano[3,4-d]imidazol-4-one]	–
210	> 30000	CC1(CO)Cc2ncn(-c3ccc4c(c3)CCO4)c2C(=O)O1 (single isomer, unassigned) [Compound 42A, 3-(2,3-Dihydro-benzofuran-5-yl)-6-hydroxymethyl-6-methyl-6,7-dihydro-3H-pyrano[3,4-d]imidazol-4-one]	–
460	> 30000	CN1C(=O)CCc2cc(-n3cnc4c3C(=O)OC(C)(CO)C4)ccc21 (single isomer, unassigned) [Compound 40B, 6-[6-(hydroxymethyl)-6-methyl-4-oxo-3H,4H,6H,7H-pyrano[3,4-d]imidazol-3-yl]-1-methyl-1,2,3,4-tetrahydroquinolin-2-one]	–
540	> 100000	O=C1OC(CO)Cc2ncn(-c3ccc(Cl)cc3)c21 (centres unmarked) [Compound 36, 3-(4-chlorophenyl)-6-(hydroxymethyl)-3H,4H,6H,7H-pyrano[3,4-d]imidazol-4-one]	–
120	19000	CC1(CO)Cc2ncn(-c3ccc(Cl)cc3)c2C(=O)O1 (single isomer, unassigned) [Compound 38A, 3-(4-chlorophenyl)-6-(hydroxymethyl)-6-methyl-3H,4H,6H,7H-pyrano[3,4-d]imidazol-4-one]	–
160	> 30000	CN1C(=O)CCc2cc(-n3cnc4c3C(=O)OC(C)(CO)C4)ccc21 (single isomer, unassigned) [Compound 40A, 6-[6-(hydroxymethyl)-6-methyl-4-oxo-3H,4H,6H,7H-pyrano[3,4-d]imidazol-3-yl]-1-methyl-1,2,3,4-tetrahydroquinolin-2-one]	–
290	24000	CC1(C)Cc2ncn(-c3ccc(Cl)c(C#N)c3)c2C(=O)O1 [Compound 12, 2-chloro-5-{6,6-dimethyl-4-oxo-3H,4H,6H,7H-pyrano[3,4-d]imidazol-3-yl}benzonitrile]	–
440	20000	O=C1OCCc2ncn(-c3ccc(F)c(F)c3)c21 [Compound 24, 3-(3,4-difluorophenyl)-3H,4H,6H,7H-pyrano[3,4-d]imidazol-4-one]	–
130	13000	CC1(C)Cc2ncn(-c3ccc(F)cc3)c2C(=O)O1 [Compound 14, 3-(4-fluorophenyl)-6,6-dimethyl-3H,4H,6H,7H-pyrano[3,4-d]imidazol-4-one]	–
620	> 30000	CC1(CO)Cc2ncn(-c3cccc(Cl)c3F)c2C(=O)O1 (single isomer, unassigned) [Compound 35B, 3-(3-chloro-2-fluorophenyl)-6-(hydroxymethyl)-6-methyl-3H,4H,6H,7H-pyrano[3,4-d]imidazol-4-one]	–
390	36000	CC1(CO)Cc2ncn(-c3ccc(Cl)cc3)c2C(=O)O1 (single isomer, unassigned) [Compound 38B, 3-(4-chlorophenyl)-6-(hydroxymethyl)-6-methyl-3H,4H,6H,7H-pyrano[3,4-d]imidazol-4-one]	–
420	82000	N#Cc1ccc(-n2cnc3c2C(=O)OCC3)cc1 [Compound 21, 4-{4-oxo-3H,4H,6H,7H-pyrano[3,4-d]imidazol-3-yl}benzonitrile]	–

SMILES	IC50 [1] [nM]	IC50 [2, 3] [nM]	IC50 [2, 4] [nM]
CC1Cc2ncn(-c3ccc(C#N)c(Cl)c3)c2C(=O)O1 (single isomer, unassigned) [Compound 15B, 2-chloro-4-[6-methyl-4-oxo-3H,4H,6H,7H-pyrano[3,4-d]imidazol-3-yl]benzonitrile]	12	–	6400
CC1Cc2ncn(-c3ccc(C#N)c(Cl)c3)c2C(=O)O1 (single isomer, unassigned) [Compound 15A, 2-chloro-4-[6-methyl-4-oxo-3H,4H,6H,7H-pyrano[3,4-d]imidazol-3-yl]benzonitrile]	7.5	–	3400
O=C1OCCc2ncn(C3Cc4ccccc4C3)c21 [Compound 25, 3-(2,3-dihydro-1H-inden-2-yl)-3H,4H,6H,7H-pyrano[3,4-d]imidazol-4-one]	500	–	> 30000
N#Cc1ccc(-n2cnc3c2C(=O)OCC3)cc1Cl [Compound 22, 2-chloro-4-{4-oxo-3H,4H,6H,7H-pyrano[3,4-d]imidazol-3-yl}benzonitrile]	25	–	18000
COC(=O)C1(C)Cc2ncn(-c3ccc(C#N)c(Cl)c3)c2C(=O)O1 (centres unmarked) [Compound 45, 3-(3-Chloro-4-cyano-phenyl)-6-methyl-4-oxo-3,4,6,7-tetrahydro-pyrano[3,4-d]imidazole-6-carboxylic acid methyl ester]	28	–	1100
CN(C)C(=O)C1(C)Cc2ncn(-c3ccc(C#N)c(Cl)c3)c2C(=O)O1 (centres unmarked) [Compound 46, 3-(3-chloro-4-cyano-phenyl)-6-methyl-4-oxo-3,4,6,7-tetrahydro-pyrano[3,4-d]imidazole-6-carboxylic acid dimethylamide]	89	–	13000
